Data set [1] has as its system human A549 NSCLC tumors. In words: Therapeutic effects of SHR-110008 and Taxotere against xenografts of human A549 NSCLC tumors in nude mice (Test Example 1). Conditions: for RTV X ± SD / T/C (%) / T/C (%) (weighing method) / Weight of tumors (g) x ± SD: 14th day; for T/C (%): from RTV; for T/C (%) (weighing method): from weight of tumors; for Weight of tumors (g) x ± SD: weighing method; for TV (X ± SD, mm^3) d0 / Body weight (g) d0: d0: time of the first dosage; for TV (X ± SD, mm^3) dn / Body weight (g) dn: dn: 14th day after the first dosage. On the technique in general: In xenograft studies the graft and the host belong to different species.
Experimental: Numbers of animals: 9 mice in control group, 5 mice in medication administration team.
Animals were adapted in animal house for 1 week and were hypodermic inoculated human A549 NSCLC tumors. After tumors grew to 100-300 mm^3, mice were randomly divided into teams of SHR-110008 and Taxotere(d0). The doses of SHR-110008 were 10 and 16 mg/kg, and the doses of Taxotere were 12 and 19 mg/kg, separately. The route of administration is intravenous injection. SHR-110008(10 mg/kg) and Taxotere (12 mg/kg) were administrated on d0, d4, d8, a total of three times. SHR-110008(16 mg/kg) and Taxotere (19 mg/kg) were administrated on d0, d7, a total of two times. The volume of tumors and weights of the mice were measured for 2-3 times per week. The calculation formula of the volume of tumor (V) is: V=1/2×a×b^2, a: length of tumor, b: width of tumor.

Data set [2] concerns human A549 NSCLC tumors. In words: Therapeutic effects of SHR1021-47 against xenografts of human A549 NSCLC tumors in nude mice (Test Example 2). It is filed as in vivo, BALB/cA-nude mice. Conditions: 12 mg/kg iv, d0, d7. The procedure:
Animal species: BALB/cA-nude mice.
Numbers of animals: 12 mice in control group, 6 mice in medication administration team.
Cell culture: Human A549 NSCLC tumor cells were cultured in vitro remaining on logarithmic growth phase.
Transplantation: Take the prepared cells to inoculate subcutaneously to the nude mice.
Inoculation: Take the tumor lump to inoculate in one side of oxter on the condition of asepsis.
Grouping and dose design: Measure the diameter of transplantation tumor by sliding caliper. After tumors grew to 100-250 mm^3, mice were randomly divided into groups of Shr1021-47 (8 mg/kg, 12 mg/kg, 16 mg/kg) and Taxotere (12 mg/kg).
Administration route and time: iv administration. Shr1021-47 and Taxotere were administrated on d0, d7, 2 times in all. Measure the volume of tumor and weigh the mice 2-3 times per week.
Calculate the relative tumor volume (RTV) according to the measurements. The formula is: RTVI=Vt/V0. V0 refers to the volume of tumor on d0; Vt refers to the volume of tumor on every measurement. The index of antitumor activity is T/C(%). The formula is: T/C(%)=TRTV/CRTV×100, TRTV: RTV of treatment group, CRTV: RTV of control group.

[3] abbreviates: under the suitable dose schedule, conclusion in words.
Where [4] appears, read: dn: 14th day after the first dosage.

Each structure is given as a SMILES string. Marks after values point to notes of the source that are not given here.

In the case of `CC(=O)O[C@@]12CO[C@@H]1C[C@H](O)[C@@]1(C)[C@@H]3OC(CN4C[C@@H]5C[C@H]4CO5)O[C@@H]3C3=C(C)[C@@H](OC(=O)[C@H](O)[C@@H](NC(=O)OC(C)(C)C)c4ccccc4)C[C@@](O)([C@@H](OC(=O)c4ccccc4)[C@H]21)C3(C)C` (stereo partly drawn) [SHR-110008], in the data set with human A549 NSCLC tumors [1] (10 mg/kg i.v., d0, 4, 8), the “RTV X ± SD” value came to 10.81 ± 1.79, the “T/C (%)” value was 48.8* %, the “T/C (%) (weighing method)” value was 38.6* % and the “Weight of tumors (g) x ± SD” value was found to be 1.59 ± 0.57 g. Moreover, in the data set with human A549 NSCLC tumors [1] (10 mg/kg i.v., d0, 4, 8), the “TV (X ± SD, mm^3) d0” value came to 129 ± 20 mm^3 and the “TV (X ± SD, mm^3) dn” value is listed as 1383 ± 243 mm^3. In the data set with human A549 NSCLC tumors [1] (16 mg/kg i.v., d0, 7), the “RTV X ± SD” value is given as 4.41 ± 2.43, the “T/C (%)” value was 19.9* %, the “T/C (%) (weighing method)” value is listed as 74.1* % and the “Weight of tumors (g) x ± SD” value is on record as 0.67 ± 0.23 g. Moreover, in the data set with human A549 NSCLC tumors [1] (16 mg/kg i.v., d0, 7), the “TV (X ± SD, mm^3) d0” value was found to be 143 ± 38 mm^3 and the “TV (X ± SD, mm^3) dn” value is 612 ± 340 mm^3. Also, in the data set on human A549 NSCLC tumors [1] (setting [3]), the “therapeutic effect compared with Taxotere” value is “better than that of Taxotere” and the “toxicity compared with Taxotere” value is “better than that of Taxotere”.
For the molecule `CC(=O)O[C@@]12CO[C@@H]1C[C@H](O)[C@@]1(C)C(=O)[C@H](O)C3=C(C)[C@@H](OC(=O)[C@H](O)[C@@H](NC(=O)OC(C)(C)C)c4ccccc4)C[C@@](O)([C@@H](OC(=O)c4ccccc4)[C@H]21)C3(C)C` [Taxotere], in the data set on human A549 NSCLC tumors [1] (12 mg/kg i.v., d0, 4, 8), the “RTV X ± SD” value is listed as 8.65 ± 5.83, the “T/C (%)” value is recorded as 39.1* %, the “T/C (%) (weighing method)” value is recorded as 51.7* % and the “Weight of tumors (g) x ± SD” value is reported as 1.25 ± 0.71 g. Moreover, in the data set on human A549 NSCLC tumors [1] (12 mg/kg i.v., d0, 4, 8), the “Body weight (g) d0” value turned out to be 17.6 g; the “TV (X ± SD, mm^3) d0” value is listed as 140 ± 24 mm^3; the “Body weight (g) dn” value stood at 14.1 g; the “TV (X ± SD, mm^3) dn” value was found to be 1149 ± 627 mm^3. Also, in the data set with human A549 NSCLC tumors [1] (19 mg/kg i.v., d0, 7), the “RTV X ± SD” value was determined as 7.13 ± 6.00, the “T/C (%)” value is on record as 32.2* %, the “T/C (%) (weighing method)” value is reported as 57.9* % and the “Weight of tumors (g) x ± SD” value stood at 1.09 ± 0.73 g. In the data set on human A549 NSCLC tumors [1] (19 mg/kg i.v., d0, 7), the “Body weight (g) d0” value was 17.7 g; the “TV (X ± SD, mm^3) d0” value is listed as 134 ± 19 mm^3; the “Body weight (g) dn” value is 13.0 g; the “TV (X ± SD, mm^3) dn” value came out at 902 ± 736 mm^3. Also, the “RTV X ± SD” value in the data set on human A549 NSCLC tumors [2] (14th day) amounted to 11.2 ± 6.0. Further, in the data set with human A549 NSCLC tumors [2] (14th day, TRTV/CRTV×100), the “T/C (%)” value was 78.3%. In the data set on human A549 NSCLC tumors [2] (d0: time of the first dosage), the “Body weight (g) d0” value was found to be 20.7 g and the “TV (X ± SD, mm^3) d0” value amounted to 156 ± 20 mm^3. In the data set with human A549 NSCLC tumors [2] (setting [4]), the “Body weight (g) dn” value came to 15.6 g and the “TV (X ± SD, mm^3) dn” value was found to be 1679 ± 749 mm^3.

Values taken from patent US20100168420A1, “Taxol Derivatives With Antitumor Activity” (priority 2007, published 2010).
